Patent US9012475B2, “Method for enhancing anti-tumor effect of a microtubule-targeting drug, and a method for treatment of tumor” (Taiho Pharmaceutical Co., Ltd., priority 2013, dated 2015)
Entries after “also recorded” stand apart in the source; their conditions may differ. Where two headings read alike, the source gives them in different places.

Experiments:
[1] = then 24 hours later MK-5108 orally twice per day over 2 days; cited from earlier work
[2] = Evaluation of oral absorption property; type: in vivo, BALE/cA mice; conditions: oral administration in 0.5% HPMC, plasma 0.5-6 hours, LCMS
Protocol: A test compound was suspended or dissolved in 0.5% HPMC and orally administered to BALE/cA mice. At the time points of 0.5, 1, 2, 4 and 6 hours after oral administration, blood was sampled from the back of the eye to obtain blood plasma. The concentration of the compound in the obtained blood plasma was measured by LCMS and evaluated for oral absorption property.

human Aurora B = human Aurora B (Homo sapiens (Human), UniProt Q96GD4); test: Measurement of Aurora B kinase activity; type: biochemical; conditions: ATP 40 μM, 60 minutes
Chain of human Aurora B (Q96GD4 whole entry): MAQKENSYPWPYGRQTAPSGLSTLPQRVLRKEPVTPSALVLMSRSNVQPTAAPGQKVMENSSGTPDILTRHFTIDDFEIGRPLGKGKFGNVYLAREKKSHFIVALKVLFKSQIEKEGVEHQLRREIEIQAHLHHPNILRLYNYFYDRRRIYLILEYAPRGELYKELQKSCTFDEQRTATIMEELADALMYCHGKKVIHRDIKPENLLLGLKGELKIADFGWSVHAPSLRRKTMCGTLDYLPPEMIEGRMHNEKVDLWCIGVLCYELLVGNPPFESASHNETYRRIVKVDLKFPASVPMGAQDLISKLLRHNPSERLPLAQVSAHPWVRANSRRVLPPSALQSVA
Chain of human Aurora B (Q9NQS7 803-916 partner): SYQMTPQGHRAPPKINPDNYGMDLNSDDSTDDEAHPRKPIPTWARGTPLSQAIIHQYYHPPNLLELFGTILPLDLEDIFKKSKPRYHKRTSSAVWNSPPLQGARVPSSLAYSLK
Protocol: (§1) The inhibitory activities of a test compound against Aurora A and Aurora B were measured according to the following method.
The concentration of the compound at which 50% of the phosphorylation reaction was suppressed was defined as IC50 value (nM).

[3] = system: human-derived lung cancer cell strain NCI-H460 (H460); test: Schedule of administration in combination with paclitaxel, NCI-H460 subcutaneous graft; type: in vivo
Protocol: The study was performed according to the method in Example 1. Cells (1×10^7) of human-derived lung cancer cell strain NCI-H460 (H460) were subcutaneously grafted to right abdomens of nude mice. […] Group 1 was defined as a control group, Group 2 and 3 were defined as a paclitaxel single administration group and Compound 1 single administration group, respectively. Group 4 and 5 were defined as an administration group in combination with paclitaxel and Compound 1. Paclitaxel was intravenously administered in a dose of 60 mg/kg twice, i.e., day 1 and day 8 (Group 2, 4 and 5). In Group 3 and 5, Compound 1 was orally administered twice per day in a dose of 60 mg/kg, for 4 days from the next day of paclitaxel administration and for 4 days from day 9 of paclitaxel administration. In Group 4, Compound 1 was orally administered twice per day in a dose of 60 mg/kg from the next day of paclitaxel administration for 2 days and from day 9 for 2 days. In Group 3, 4 and 5, the dose per day of Compound 1 was 120 mg/kg/day. […]
Furthermore, the body weights of mice were measured with time and a body weight change rate (BWC) was computationally obtained according to the following expression. […]

human Aurora A = human Aurora A (Homo sapiens (Human), UniProt O14965); test: Measurement of Aurora A inhibitory activity (IMAP fluorescence polarization kinase assay); type: biochemical; conditions: ATP 5 μM, 25° C., 50 minutes
Chain of human Aurora A (O14965 whole entry): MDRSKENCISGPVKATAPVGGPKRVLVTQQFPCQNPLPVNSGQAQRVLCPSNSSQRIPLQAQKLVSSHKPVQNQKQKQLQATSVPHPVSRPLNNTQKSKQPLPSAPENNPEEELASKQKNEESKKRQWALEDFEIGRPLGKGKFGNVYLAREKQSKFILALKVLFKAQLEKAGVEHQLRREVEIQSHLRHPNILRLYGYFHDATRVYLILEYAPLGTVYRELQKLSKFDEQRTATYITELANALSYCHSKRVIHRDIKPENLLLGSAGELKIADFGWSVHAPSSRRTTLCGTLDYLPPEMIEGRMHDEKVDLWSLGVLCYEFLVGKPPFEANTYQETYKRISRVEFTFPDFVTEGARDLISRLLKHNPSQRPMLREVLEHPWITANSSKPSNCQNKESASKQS
Protocol: as §1
Complementary DNA of human Aurora A was fused with a histidine tag at the amino terminal, inserted into an expression vector and highly expressed in Escherichia coli BL21-CodonPlus (DE3)-RIL strain. After Escherichia coli was recovered and lysed, human Aurora A protein fused with a histidine tag was allowed to bind to a nickel chelate column and eluted by imidazole from the column. An active fraction was desalted by a desalting column to obtain purified enzyme.
In measuring inhibitory activity of the compound, first, the test compound was serially diluted by dimethylsulfoxide (DMSO). […] To the mixture, IMAP (registered trade mark) Progressive Binding Reagent diluted 500× with IMAP (registered trade mark) Progressive Binding Buffer A (manufactured by Molecular Devices) was added to terminate the kinase reaction. […] Based on the obtained fluorescence polarization degree, the amount of phosphorylation reaction was obtained.

[4] = system: human-derived uterus cancer cell strain HeLa-luc; conditions: for number of CR cases: 5 rats
Source text: Cells (1×10^7) of human-derived uterus cancer cell strain HeLa-luc (manufactured by PerkinElmer Co., Ltd.) having a luciferase gene introduced therein were subcutaneously grafted to the right abdomens of nude rats. At the time the volume of a tumor developed from grafted cells reached about 200 mm^3, the rats were divided into groups each consisting of 5 rats according to stratified randomization such that each group had almost the same tumor volume. […] To Group 2 and 3, paclitaxel was administered and, on the next day, Compound 1 (30 mg/kg) was orally administered twice per day for one day or 4 days (sequential administration, see FIG. 1 (A), Sequential treatment). To the rats of Group 4 and 5, paclitaxel was administered and, on the same day, Compound 1 (30 mg/kg) was orally administered twice per day for 2 days or 4 days (concurrent administration, see FIG. 1 (B), Concurrent treatment). Compound 1 was suspended or dissolved in 0.5% (w/v) hydroxypropyl methyl cellulose (HPMC). Paclitaxel was dissolved in Cremophor EL and anhydrous ethanol, diluted with physiological saline so as to obtain a predetermined concentration and put in use.
The presence or absence of a therapeutic effect was determined by measuring the major axis and minor axis of a tumor with time and obtaining a tumor volume (TV), relative tumor volume (RTV) and T/C (%) value (average relative tumor volume ratio of the treatment group to the control group) on day 10 after initiation of administration according to the following expressions. Tumor volume (TV)={(major axis)×(minor axis)^2}/2 Relative tumor volume (RTVn) on measurement day (n)=TVn/TV1 T/C(%)={(average RTVn of treatment group)/(average RTVn of control group)}×100
TV1 represents tumor volume at the administration initiation time
Furthermore, an individual in which a tumor disappeared was specified as CR (complete remission/complete response) and the number of cases was obtained.

[5] = system: human-derived lung cancer cell strain NCI-H460 (H460); test: Schedule of administration in combination with docetaxel (Example 2 (2)); type: in vivo, nude mice
Protocol: The study was performed according to the method in Example 1, except that docetaxel was used in place of paclitaxel. Furthermore, administration of Compound 1 was initiated from the administration day of docetaxel. Group 1 was defined as a control group. Docetaxel was dissolved in anhydrous ethanol and Tween 80 and thereafter diluted with 5% glucose injection liquid and intravenously administered in a dose of 30 mg/kg twice, i.e., on day 1 and day 8 (Group 2 and 4). In Group 3 and 4, Compound 1 was orally administered twice per day in a dose of 60 mg/kg, from the administration day of docetaxel for 4 days and from day 8 of docetaxel administration for 4 days.
In Group 3 and 4, the dose of Compound 1 per day was 120 mg/kg/day. Note that, in FIG. 2 (B), Group 1 is represented by Control, Group 2 by Docetaxel alone, Group 3 by Compound 1 alone and Group 4 by Combo (4 days).

Row | SMILES | antitumor effect in combination with docetaxel [1] | oral absorption property (concentration in blood plasma) [2] | IC50 (human Aurora B) | toxicity / side effect ([3]; Group 4 and 5: paclitaxel 60 mg/kg iv plus Compound 1 60 mg/kg po bid for 2 or 4 days per cycle) | tumor volume, Combo (4 days) versus Combo (2 days) ([3]; paclitaxel 60 mg/kg iv day 1 and 8, Compound 1 60 mg/kg po bid for 4 days (Group 5) vs 2 days (Group 4) per 7-day cycle) | IC50 (human Aurora A) | number of CR cases ([4]; Group 2: paclitaxel 10 mg/kg iv, from next day Compound 1 30 mg/kg po twice per day for one day (sequential)) | number of CR cases ([4]; Group 3: paclitaxel 10 mg/kg iv, from next day Compound 1 30 mg/kg po twice per day for 4 days (sequential)) | toxicity / side effect ([4]; Group 3 and 5: paclitaxel 10 mg/kg iv plus Compound 1 30 mg/kg po bid for 4 days) | number of CR cases ([4]; Group 4: paclitaxel 10 mg/kg iv, from same day Compound 1 30 mg/kg po twice per day for 2 days (concurrent)) | number of CR cases ([4]; Group 5: paclitaxel 10 mg/kg iv, from same day Compound 1 30 mg/kg po twice per day for 4 days (concurrent)) | toxicity / side effect ([5]; Group 4: docetaxel 30 mg/kg iv plus Compound 1 60 mg/kg po bid for 4 days per cycle) | antitumor effect (tumor volume), Combo (4 days) ([5]; docetaxel 30 mg/kg iv day 1 and 8, Compound 1 60 mg/kg po bid for 4 days from day 1 and day 8)
1 | O=C(O)[C@]1(Cc2cccc(Nc3nccs3)n2)CC[C@@H](Oc2cccc(Cl)c2F)CC1 [MK-5108] | enhancement of an antitumor effect is confirmed |  |  |  |  |  |  |  |  |  |  |  | 
2 | Cc1cc(Nc2nc(CC3(C(=O)O)CCN(C(=O)c4cccc(Cl)c4Cl)CC3)ccc2F)n[nH]1 [Production Example 1, 1-(2,3-dichlorobenzoyl)-4-((5-fluoro-6-(5-methyl-1H-pyrazol-3-ylamino)pyridin-2-yl)methyl)piperidine-4-carboxylic acid] |  | satisfactory oral absorption property | 140 nM | no significant toxicity such as death was observed | smaller than that of Group 4; also recorded: stronger antitumor enhancing effect | 0.4 nM | no CR cases | 2 | no serious toxicity such as death was observed | one | 4 | no significant toxicity such as death was observed | an antitumor effect is exerted
